Test results taken from the NIST ThermoML archive (doi:10.1016/j.jct.2016.03.021).

Assay: wn = mass fraction of the nth substance listed
Conditions: Liquid; for mass density: Vibrating tube method

NCCO [2-aminoethan-1-ol] + O
mass density [kg/m3]
Conditions | w1 = 0.1001 | w1 = 0.2 | w1 = 0.3005 | w1 = 0.4
293.15 K, 50000 kPa | – | – | – | 1034.8
293.15 K, 60000 kPa | 1026.9 | 1029.4 | 1033.5 | 1038.1
293.15 K, 70000 kPa | 1030.8 | 1033 | 1036.9 | 1041.4
293.15 K, 80000 kPa | 1034.5 | 1036.2 | 1040 | 1044.3
293.15 K, 90000 kPa | 1038.2 | 1039.7 | 1043.3 | 1047.5
293.15 K, 100000 kPa | 1041.8 | 1043.2 | 1046.6 | 1050.4
293.15 K, 110000 kPa | 1045.2 | 1046.4 | 1049.6 | 1053.3
293.15 K, 120000 kPa | 1048.8 | 1049.6 | 1052.6 | 1056.3
313.15 K, 100 kPa | 995.9 | 999.1 | 1003.2 | 1007.5
313.15 K, 500 kPa | 996 | 999.2 | 1003.4 | 1007.7
313.15 K, 1000 kPa | 996.3 | 999.4 | 1003.6 | 1007.9
313.15 K, 2000 kPa | 996.6 | 999.8 | 1004 | 1008.3

viscosity [mPa·s]
Conditions | w1 = 0.1 | w1 = 0.1001 | w1 = 0.2 | w1 = 0.3 | w1 = 0.3005 | w1 = 0.4 | w1 = 0.4001
293.15 K, 60000 kPa, Falling or rolling sphere viscometry | – | 1.431 | 1.994 | – | 3.032 | – | 4.628
293.15 K, 80000 kPa, Falling or rolling sphere viscometry | – | 1.434 | 2.009 | – | 3.076 | – | 4.739
293.15 K, 100000 kPa, Falling or rolling sphere viscometry | – | 1.432 | 2.026 | – | 3.12 | – | 4.845
293.15 K, 120000 kPa, Falling or rolling sphere viscometry | – | 1.443 | 2.046 | – | 3.162 | – | 4.954
313.15 K, 93 kPa, Concentric cylinders viscometry | 0.8932 | – | 1.198 | 1.675 | – | 2.284 | –
313.15 K, 100 kPa, Falling or rolling sphere viscometry | – | 0.891 | 1.173 | – | 1.638 | – | 2.284
313.15 K, 101 kPa, Falling or rolling sphere viscometry | 0.891 | – | 1.173 | 1.638 | – | 2.284 | –
313.15 K, 5000 kPa, Falling or rolling sphere viscometry | – | 0.892 | 1.178 | – | 1.642 | – | –
